According to ChEMBL document CHEMBL1641425, “Discovery of 1-(3,4-dichlorophenyl)-N,N-dimethyl-1,2,3,4-tetrahydroquinolin-4-amine, a dual serotonin and dopamine reuptake inhibitor” (Bioorg Med Chem Lett, 2011):

Assays:
[1] = Half life in human microsomes; format: ADME, Microsome
[2] = target: Sodium-dependent noradrenaline transporter (Homo sapiens, UniProt P23975); test: Inhibition of human recombinant norepinephrine transporter
[3] = target: Sodium-dependent serotonin transporter (Homo sapiens, UniProt P31645); test: Inhibition of human recombinant 5HT transporter
[4] = Half life in mouse microsomes; format: ADME, Microsome
[5] = target: Sodium-dependent dopamine transporter (Homo sapiens, UniProt Q01959); test: Inhibition of human recombinant dopamine transporter
Cytochrome P450 2D6 = Cytochrome P450 2D6 (Homo sapiens, UniProt P10635); test: Inhibition of CYP2D6; format: ADME
[6] = target: Voltage-gated inwardly rectifying potassium channel KCNH2 (Homo sapiens, UniProt Q12809)
[7] = Inhibition of CYP1A; format: ADME
Cytochrome P450 3A4 = Cytochrome P450 3A4 (Homo sapiens, UniProt P08684); test: Inhibition of CYP3A4; format: ADME
Cytochrome P450 2C9 = Cytochrome P450 2C9 (Homo sapiens, UniProt P11712); test: Inhibition of CYP2C9; format: ADME
Cytochrome P450 2C19 = Cytochrome P450 2C19 (Homo sapiens, UniProt P33261); test: Inhibition of CYP2C19; format: ADME
Sequence of Cytochrome P450 2C19 (P33261 whole entry): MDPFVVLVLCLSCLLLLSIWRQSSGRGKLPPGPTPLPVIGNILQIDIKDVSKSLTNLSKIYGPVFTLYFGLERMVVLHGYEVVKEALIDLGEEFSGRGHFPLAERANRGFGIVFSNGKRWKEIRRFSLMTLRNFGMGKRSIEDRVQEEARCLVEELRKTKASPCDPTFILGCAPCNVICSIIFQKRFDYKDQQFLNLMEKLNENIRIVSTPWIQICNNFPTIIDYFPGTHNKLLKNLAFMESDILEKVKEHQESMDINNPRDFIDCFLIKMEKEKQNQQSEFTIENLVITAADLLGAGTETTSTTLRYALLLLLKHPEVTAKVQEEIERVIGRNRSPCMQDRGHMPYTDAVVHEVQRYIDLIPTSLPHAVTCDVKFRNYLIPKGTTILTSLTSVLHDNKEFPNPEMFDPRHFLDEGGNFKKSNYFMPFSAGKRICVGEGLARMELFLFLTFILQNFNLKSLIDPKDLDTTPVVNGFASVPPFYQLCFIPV

Sequence of Voltage-gated inwardly rectifying potassium channel KCNH2 (Q12809 whole entry): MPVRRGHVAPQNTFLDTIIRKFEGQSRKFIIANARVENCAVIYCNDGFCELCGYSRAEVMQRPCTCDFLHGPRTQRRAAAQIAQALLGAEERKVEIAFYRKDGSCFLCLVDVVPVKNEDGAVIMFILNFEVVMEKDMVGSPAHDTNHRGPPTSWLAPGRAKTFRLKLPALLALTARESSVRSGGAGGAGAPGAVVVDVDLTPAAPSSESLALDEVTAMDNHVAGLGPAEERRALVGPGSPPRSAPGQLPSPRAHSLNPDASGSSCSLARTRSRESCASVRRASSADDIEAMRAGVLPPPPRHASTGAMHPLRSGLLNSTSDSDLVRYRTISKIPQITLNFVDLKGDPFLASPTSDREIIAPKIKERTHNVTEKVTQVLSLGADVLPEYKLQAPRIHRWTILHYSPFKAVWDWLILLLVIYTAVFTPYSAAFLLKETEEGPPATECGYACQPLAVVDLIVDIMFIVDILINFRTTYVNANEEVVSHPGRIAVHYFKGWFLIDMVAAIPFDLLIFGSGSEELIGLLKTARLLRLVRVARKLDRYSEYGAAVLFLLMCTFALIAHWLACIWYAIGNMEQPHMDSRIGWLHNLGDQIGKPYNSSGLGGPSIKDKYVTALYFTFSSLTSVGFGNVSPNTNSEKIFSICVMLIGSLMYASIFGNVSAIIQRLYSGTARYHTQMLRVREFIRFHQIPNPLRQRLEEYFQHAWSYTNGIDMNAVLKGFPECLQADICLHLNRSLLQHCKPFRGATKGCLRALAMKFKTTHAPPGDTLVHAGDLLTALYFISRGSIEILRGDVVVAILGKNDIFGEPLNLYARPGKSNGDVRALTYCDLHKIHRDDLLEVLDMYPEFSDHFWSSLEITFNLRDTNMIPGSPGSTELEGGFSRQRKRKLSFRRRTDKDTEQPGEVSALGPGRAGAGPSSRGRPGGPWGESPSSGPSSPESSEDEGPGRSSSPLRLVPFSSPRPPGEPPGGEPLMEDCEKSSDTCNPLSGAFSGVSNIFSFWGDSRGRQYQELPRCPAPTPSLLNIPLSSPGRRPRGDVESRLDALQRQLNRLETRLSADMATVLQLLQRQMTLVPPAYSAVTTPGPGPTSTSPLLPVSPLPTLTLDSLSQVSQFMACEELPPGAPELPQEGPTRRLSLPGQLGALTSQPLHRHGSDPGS
Sequence of Cytochrome P450 2D6 (P10635 whole entry): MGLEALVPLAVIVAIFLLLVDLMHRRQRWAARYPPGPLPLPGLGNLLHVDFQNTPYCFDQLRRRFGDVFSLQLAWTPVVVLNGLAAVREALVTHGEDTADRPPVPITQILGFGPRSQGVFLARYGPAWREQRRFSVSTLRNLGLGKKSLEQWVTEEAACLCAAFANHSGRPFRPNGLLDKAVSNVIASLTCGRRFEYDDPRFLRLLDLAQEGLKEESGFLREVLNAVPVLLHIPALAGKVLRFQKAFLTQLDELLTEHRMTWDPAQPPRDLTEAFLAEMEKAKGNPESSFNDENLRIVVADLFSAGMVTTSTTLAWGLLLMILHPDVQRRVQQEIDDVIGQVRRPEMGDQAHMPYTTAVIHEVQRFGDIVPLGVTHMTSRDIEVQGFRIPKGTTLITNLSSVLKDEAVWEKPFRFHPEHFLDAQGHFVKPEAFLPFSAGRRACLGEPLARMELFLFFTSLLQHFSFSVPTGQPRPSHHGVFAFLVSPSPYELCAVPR
Sequence of Cytochrome P450 2C9 (P11712 whole entry): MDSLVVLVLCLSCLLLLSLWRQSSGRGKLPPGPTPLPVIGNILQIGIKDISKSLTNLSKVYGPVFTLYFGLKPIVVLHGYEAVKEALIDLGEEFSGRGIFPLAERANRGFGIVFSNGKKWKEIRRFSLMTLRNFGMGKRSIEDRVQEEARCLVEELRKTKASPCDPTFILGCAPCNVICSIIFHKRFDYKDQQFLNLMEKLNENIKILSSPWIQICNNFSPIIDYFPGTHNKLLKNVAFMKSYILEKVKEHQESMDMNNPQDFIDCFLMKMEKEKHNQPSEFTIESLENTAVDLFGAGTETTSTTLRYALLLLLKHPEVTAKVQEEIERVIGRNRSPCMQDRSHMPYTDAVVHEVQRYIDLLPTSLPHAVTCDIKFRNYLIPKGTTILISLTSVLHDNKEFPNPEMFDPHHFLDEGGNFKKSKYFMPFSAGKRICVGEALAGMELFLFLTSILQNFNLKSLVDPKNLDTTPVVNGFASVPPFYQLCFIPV
Sequence of Cytochrome P450 3A4 (P08684 whole entry): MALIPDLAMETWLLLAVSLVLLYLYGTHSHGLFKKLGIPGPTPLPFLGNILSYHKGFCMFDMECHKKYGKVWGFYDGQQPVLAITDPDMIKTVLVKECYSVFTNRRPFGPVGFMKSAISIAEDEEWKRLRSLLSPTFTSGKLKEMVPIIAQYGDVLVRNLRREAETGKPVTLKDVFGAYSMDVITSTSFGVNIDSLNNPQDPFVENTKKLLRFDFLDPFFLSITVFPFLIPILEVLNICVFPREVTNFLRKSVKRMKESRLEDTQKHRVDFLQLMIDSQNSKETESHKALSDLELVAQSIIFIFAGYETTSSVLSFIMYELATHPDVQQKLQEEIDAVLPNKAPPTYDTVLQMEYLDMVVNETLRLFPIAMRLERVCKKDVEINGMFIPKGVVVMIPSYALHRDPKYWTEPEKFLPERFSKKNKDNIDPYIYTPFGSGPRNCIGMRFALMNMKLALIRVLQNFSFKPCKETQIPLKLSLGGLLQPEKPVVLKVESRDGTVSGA
Sequence of Sodium-dependent dopamine transporter (Q01959 whole entry): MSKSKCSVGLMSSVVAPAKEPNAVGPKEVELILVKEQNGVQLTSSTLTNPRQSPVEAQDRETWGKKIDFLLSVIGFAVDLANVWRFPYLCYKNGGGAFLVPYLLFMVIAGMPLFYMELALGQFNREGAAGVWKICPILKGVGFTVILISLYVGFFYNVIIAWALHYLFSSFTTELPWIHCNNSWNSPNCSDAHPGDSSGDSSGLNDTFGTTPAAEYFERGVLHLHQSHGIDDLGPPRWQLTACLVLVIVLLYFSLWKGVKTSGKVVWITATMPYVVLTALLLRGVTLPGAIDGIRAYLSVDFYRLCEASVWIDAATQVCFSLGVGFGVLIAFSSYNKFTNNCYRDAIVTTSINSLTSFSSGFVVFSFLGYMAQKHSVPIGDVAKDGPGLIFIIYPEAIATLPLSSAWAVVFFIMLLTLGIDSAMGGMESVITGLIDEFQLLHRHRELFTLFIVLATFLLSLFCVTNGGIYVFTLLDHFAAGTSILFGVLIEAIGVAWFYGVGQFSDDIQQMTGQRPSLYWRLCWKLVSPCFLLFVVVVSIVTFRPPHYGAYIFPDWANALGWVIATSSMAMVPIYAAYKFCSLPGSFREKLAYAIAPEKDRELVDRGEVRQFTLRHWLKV
Sequence of Sodium-dependent noradrenaline transporter (P23975 whole entry): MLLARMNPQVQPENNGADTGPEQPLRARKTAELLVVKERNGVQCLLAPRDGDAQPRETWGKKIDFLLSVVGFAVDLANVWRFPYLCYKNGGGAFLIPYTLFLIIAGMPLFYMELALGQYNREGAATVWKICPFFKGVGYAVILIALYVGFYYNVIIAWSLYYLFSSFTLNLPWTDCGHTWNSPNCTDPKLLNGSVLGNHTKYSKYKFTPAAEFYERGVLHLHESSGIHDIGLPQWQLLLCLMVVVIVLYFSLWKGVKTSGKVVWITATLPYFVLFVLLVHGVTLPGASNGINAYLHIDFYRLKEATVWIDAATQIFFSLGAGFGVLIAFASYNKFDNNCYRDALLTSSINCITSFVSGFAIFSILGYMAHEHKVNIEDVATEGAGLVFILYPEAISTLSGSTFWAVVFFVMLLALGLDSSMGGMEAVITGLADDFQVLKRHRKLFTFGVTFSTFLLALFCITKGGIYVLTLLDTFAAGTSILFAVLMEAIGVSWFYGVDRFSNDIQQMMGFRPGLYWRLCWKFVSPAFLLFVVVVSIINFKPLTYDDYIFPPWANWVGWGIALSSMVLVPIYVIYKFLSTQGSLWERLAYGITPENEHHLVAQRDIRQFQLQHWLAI
Sequence of Sodium-dependent serotonin transporter (P31645 whole entry): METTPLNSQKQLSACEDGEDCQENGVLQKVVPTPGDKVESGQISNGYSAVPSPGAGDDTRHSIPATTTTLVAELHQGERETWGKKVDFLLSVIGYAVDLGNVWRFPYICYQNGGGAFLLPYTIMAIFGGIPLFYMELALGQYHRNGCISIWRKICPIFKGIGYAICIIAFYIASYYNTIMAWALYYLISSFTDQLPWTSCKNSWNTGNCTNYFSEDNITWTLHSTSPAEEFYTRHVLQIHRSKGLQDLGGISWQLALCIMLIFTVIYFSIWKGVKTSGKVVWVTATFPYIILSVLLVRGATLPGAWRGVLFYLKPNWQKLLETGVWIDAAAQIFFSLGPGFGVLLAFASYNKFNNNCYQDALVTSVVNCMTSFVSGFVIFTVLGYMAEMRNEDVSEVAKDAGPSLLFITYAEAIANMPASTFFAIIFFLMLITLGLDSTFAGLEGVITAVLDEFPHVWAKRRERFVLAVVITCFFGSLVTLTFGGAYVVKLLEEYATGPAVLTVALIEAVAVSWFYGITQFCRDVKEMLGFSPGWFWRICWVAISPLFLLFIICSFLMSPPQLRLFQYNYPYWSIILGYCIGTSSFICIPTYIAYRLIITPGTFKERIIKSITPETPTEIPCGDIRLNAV

| SMILES | half-life [1] [h] | IC50 [2] [nM] | IC50 [3] [nM] | half-life [4] [h] | IC50 [5] [nM] | IC50 (Cytochrome P450 2D6) [nM] | IC50 [7] [nM] | IC50 (Cytochrome P450 3A4) [nM] | IC50 (Cytochrome P450 2C9) [nM] | IC50 (Cytochrome P450 2C19) [nM] | IC50 [6] [nM] |
| --- | --- | --- | --- | --- | --- | --- | --- | --- | --- | --- | --- |
| CN(C)C1Cc2ccccc2N(c2ccc(Cl)c(Cl)c2)C1 (stereo unspecified) |  | 1860 | 436 |  | 122 |  |  |  |  |  |  |
| N[C@@H]1CCN(c2ccc(Cl)c(Cl)c2)c2ccccc21 | > 5 | 138 | 116 | 3.35 | 12 | 4870 | > 25000 | > 25000 | > 25000 | > 25000 | 3500 |
| CN(C)C1CCN(c2ccc(Cl)c(Cl)c2)c2ccccc21 (stereo unspecified) |  | 7140 | 3 |  | 5030 |  |  |  |  |  |  |
| CN[C@H]1Cc2ccccc2[C@@H](c2ccc(Cl)c(Cl)c2)C1 |  |  |  |  | 72 |  |  |  |  |  |  |
| CN(C)[C@H]1Cc2ccccc2N(c2ccc(Cl)c(Cl)c2)C1 |  | 3090 | 5560 |  | 309 |  |  |  |  |  |  |
| CN(C)[C@@H]1CCN(c2ccc(Cl)c(Cl)c2)c2ccccc21 | > 5 | 1180 | 7 | 0.005 | 16 | 6020 | > 25000 | > 25000 | 250 | > 25000 |  |

More lines, in order of falling IC50 [2], values ahead:

| half-life [1] [h] | IC50 [2] [nM] | IC50 [3] [nM] | half-life [4] [h] | IC50 [5] [nM] | IC50 (Cytochrome P450 2D6) [nM] | IC50 [7] [nM] | IC50 (Cytochrome P450 3A4) [nM] | IC50 (Cytochrome P450 2C9) [nM] | IC50 (Cytochrome P450 2C19) [nM] | SMILES | IC50 [6] [nM] |
| --- | --- | --- | --- | --- | --- | --- | --- | --- | --- | --- | --- |
|  | 2600 | 2550 |  | 605 |  |  |  |  |  | NC1Cc2ccccc2N(c2ccc(Cl)c(Cl)c2)C1 (stereo unspecified) |  |
|  | 1850 | 2400 |  | 465 |  |  |  |  |  | N[C@H]1Cc2ccccc2N(c2ccc(Cl)c(Cl)c2)C1 |  |
| 3.95 | 1250 | 128 | 0.333 | 100 | 100 |  |  |  |  | CN[C@H]1Cc2ccccc2N(c2ccc(Cl)c(Cl)c2)C1 |  |
|  | 1010 | 985 |  | 177 |  |  |  |  |  | CNC1Cc2ccccc2N(c2ccc(Cl)c(Cl)c2)C1 (stereo unspecified) |  |
| 3.32 | 934 | 20 | 0.367 | 39 | 3000 | > 25000 | > 25000 | > 25000 | 14100 | CNC1CCN(c2ccc(Cl)c(Cl)c2)c2ccccc21 (stereo unspecified) | 7800 |
|  | 926 | 650 |  | 246 |  |  |  |  |  | NC1CCN(c2ccc(Cl)c(Cl)c2)c2ccccc21 (stereo unspecified) |  |
| > 5 | 601 | 132 | > 5 | 8 | 1500 | > 25000 | > 25000 | > 25000 | 19000 | CN[C@@H]1CCN(c2ccc(Cl)c(Cl)c2)c2ccccc21 | 3250 |
